Assay results taken from ChEMBL document CHEMBL5705899 (Biochem J, 2014).
The source made the active and inactive calls. The calls are words filed in the database; no cut-off is given here.

How the values were obtained:
[1] = target: Mitogen-activated protein kinase kinase kinase kinase 3 (Homo sapiens) (UniProt Q8IVH8); assay: Inhibition of recombinant human MAP4K3 (1 to 873 residues) expressed in baculovirus infected Sf21 cells assessed as remaining activity at 1 uM using MBP as substrate incubated for 30 mins in presence of [gamma-33P]ATP by filter binding method relative to control
[2] = target: MAP kinase-activated protein kinase 5 (Homo sapiens) (UniProt Q8IW41); assay: Inhibition of recombinant human His6-tagged PRAK (1 to 471 residues) expressed in baculovirus infected Sf21 cells assessed as remaining activity at 1 uM using phosphorylase b peptide as substrate incubated for 30 mins in presence of [gamma-33P]ATP by filter binding method relative to control
Chain of MAP kinase-activated protein kinase 5 (Homo sapiens) (Q8IW41 whole entry, the tested form may be a part): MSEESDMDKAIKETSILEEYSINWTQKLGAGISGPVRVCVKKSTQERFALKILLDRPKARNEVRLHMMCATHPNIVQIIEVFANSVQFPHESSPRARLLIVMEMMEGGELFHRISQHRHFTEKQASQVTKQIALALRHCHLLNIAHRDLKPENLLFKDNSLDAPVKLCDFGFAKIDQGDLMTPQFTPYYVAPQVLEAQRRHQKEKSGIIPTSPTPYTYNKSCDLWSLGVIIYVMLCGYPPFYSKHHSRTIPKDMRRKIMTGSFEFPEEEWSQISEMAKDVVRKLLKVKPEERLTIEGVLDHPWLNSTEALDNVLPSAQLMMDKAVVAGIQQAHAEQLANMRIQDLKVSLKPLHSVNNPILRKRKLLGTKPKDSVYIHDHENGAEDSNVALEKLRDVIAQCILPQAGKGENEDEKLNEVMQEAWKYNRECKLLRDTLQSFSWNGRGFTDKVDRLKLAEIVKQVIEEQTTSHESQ

[3] = target: Angiopoietin-1 receptor (Homo sapiens) (UniProt Q02763); assay: (§1) Inhibition of recombinant human N-terminal His6-tagged TIE2 (771 to 1124 residues) expressed in baculovirus infected Sf21 cells assessed as remaining activity at 1 uM using Poly(Glu,Tyr) as substrate incubated for 30 mins in presence of [gamma-33P]ATP by filter binding method relative to control
[4] = target: Serine/threonine-protein kinase PLK4 (Homo sapiens) (UniProt O00444); assay: Inhibition of human SAK at 1 uM using p38-alpha KA as substrate in presence of 33P-ATP by ProQinase assay
[5] = target: SRSF protein kinase 1 (Homo sapiens) (UniProt Q96SB4); assay: Inhibition of human SRPK1 at 1 uM using MBP as substrate in presence of 33P-ATP by ProQinase assay
Chain of SRSF protein kinase 1 (Homo sapiens) (Q96SB4 whole entry): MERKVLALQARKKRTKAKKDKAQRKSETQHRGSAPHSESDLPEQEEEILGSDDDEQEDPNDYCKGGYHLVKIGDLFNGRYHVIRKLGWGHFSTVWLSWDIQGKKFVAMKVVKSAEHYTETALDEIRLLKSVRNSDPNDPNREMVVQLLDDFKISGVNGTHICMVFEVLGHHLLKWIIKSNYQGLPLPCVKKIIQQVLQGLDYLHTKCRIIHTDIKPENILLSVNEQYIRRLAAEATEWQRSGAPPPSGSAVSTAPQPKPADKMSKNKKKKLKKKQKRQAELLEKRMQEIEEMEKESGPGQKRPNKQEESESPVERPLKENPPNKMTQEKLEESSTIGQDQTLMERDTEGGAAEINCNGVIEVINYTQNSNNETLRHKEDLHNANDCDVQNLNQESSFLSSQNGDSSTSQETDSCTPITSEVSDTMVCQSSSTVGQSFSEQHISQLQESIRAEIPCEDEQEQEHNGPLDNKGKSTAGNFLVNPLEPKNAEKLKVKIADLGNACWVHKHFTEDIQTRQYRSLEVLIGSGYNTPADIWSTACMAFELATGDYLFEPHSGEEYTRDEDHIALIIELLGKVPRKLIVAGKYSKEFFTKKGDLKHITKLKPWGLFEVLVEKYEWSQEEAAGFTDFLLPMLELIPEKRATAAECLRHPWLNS

[6] = target: STE20/SPS1-related proline-alanine-rich protein kinase (Homo sapiens) (UniProt Q9UEW8); assay: Inhibition of human STK39 at 1 uM using RBER-CDC25tide as substrate in presence of 33P-ATP by ProQinase assay
[7] = target: Serine/threonine-protein kinase SIK2 (Homo sapiens) (UniProt Q9H0K1); assay: as §1, with “GST and HA-tagged SIK2 (2” for “His6-tagged TIE2 (771”, “926” for “1124”, “ALNRTSSDSALHRRR” for “Poly(Glu,Tyr)”
Chain of Serine/threonine-protein kinase SIK2 (Homo sapiens) (Q9H0K1 whole entry, looked up): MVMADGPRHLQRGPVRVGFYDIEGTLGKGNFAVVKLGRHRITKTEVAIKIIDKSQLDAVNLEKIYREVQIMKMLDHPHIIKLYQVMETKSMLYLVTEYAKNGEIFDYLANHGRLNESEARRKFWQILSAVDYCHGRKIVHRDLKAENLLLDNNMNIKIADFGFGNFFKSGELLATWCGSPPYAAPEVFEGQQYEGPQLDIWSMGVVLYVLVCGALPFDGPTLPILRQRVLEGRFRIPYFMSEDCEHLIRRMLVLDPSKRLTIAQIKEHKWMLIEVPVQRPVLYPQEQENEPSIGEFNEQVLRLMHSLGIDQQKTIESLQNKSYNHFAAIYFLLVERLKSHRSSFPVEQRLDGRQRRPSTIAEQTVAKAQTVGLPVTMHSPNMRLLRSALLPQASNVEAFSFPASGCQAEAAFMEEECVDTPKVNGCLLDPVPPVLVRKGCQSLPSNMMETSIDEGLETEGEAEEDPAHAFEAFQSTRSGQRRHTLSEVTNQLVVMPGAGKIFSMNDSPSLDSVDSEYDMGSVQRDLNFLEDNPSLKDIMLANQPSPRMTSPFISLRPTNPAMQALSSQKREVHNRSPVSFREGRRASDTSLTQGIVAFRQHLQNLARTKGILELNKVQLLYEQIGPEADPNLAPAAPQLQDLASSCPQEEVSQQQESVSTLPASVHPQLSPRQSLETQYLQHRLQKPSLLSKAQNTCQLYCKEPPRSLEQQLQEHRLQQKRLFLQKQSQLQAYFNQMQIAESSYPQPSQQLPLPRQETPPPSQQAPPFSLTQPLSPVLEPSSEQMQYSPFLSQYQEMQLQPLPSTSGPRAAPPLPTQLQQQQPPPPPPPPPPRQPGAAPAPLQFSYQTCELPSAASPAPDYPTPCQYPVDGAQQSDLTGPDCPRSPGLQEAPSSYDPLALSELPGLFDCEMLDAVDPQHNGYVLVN

[8] = target: Diacylglycerol kinase eta (Homo sapiens) (UniProt Q86XP1); assay: Inhibition of DGKeta (unknown origin) at 1 uM
[9] = target: Mitogen-activated protein kinase 1 (Homo sapiens) (UniProt P28482); assay: Inhibition of human ERK2 at 1 uM using RBER-CHKtide as substrate in presence of 33P-ATP by ProQinase assay
Chain of Mitogen-activated protein kinase 1 (Homo sapiens) (P28482 whole entry): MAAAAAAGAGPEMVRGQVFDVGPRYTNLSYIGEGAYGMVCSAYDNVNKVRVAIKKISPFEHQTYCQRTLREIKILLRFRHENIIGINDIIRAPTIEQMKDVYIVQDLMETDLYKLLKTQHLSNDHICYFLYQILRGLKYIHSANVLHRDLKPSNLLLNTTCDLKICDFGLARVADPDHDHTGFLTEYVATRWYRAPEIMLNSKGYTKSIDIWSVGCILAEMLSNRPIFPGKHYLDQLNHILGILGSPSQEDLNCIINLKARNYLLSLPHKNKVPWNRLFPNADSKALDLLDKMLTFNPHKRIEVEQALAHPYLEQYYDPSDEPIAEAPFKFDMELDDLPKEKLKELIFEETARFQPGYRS

[10] = target: Diacylglycerol kinase alpha (Homo sapiens) (UniProt P23743); assay: Inhibition of DGKalpha (unknown origin) at 1 uM
[11] = target: Serine/threonine-protein kinase PLK3 (Homo sapiens) (UniProt Q9H4B4); assay: Inhibition of human PLK3 at 1 uM using casein as substrate in presence of 33P-ATP by ProQinase assay
Chain of Serine/threonine-protein kinase PLK3 (Homo sapiens) (Q9H4B4 whole entry, looked up): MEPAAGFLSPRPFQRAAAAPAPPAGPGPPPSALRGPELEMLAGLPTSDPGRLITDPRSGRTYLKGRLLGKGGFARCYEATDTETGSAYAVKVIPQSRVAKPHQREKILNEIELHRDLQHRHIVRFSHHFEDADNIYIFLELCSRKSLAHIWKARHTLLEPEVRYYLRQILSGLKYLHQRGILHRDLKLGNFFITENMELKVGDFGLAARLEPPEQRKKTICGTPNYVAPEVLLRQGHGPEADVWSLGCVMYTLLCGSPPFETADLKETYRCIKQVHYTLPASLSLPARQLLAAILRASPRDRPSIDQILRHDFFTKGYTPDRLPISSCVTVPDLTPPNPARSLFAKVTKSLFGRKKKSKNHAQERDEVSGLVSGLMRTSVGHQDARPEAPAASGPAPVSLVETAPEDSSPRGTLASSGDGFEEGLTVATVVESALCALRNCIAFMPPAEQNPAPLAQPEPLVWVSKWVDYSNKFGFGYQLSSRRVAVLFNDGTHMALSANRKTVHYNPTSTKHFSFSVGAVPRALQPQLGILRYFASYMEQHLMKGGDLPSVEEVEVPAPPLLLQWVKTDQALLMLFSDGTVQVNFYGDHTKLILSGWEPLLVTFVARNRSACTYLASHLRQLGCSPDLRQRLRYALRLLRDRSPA

[12] = target: Tyrosine-protein kinase CSK (Homo sapiens) (UniProt P41240); assay: Inhibition of human CSK at 1 uM using polyEY as substrate in presence of 33P-ATP by ProQinase assay
[13] = target: RAC-gamma serine/threonine-protein kinase (Homo sapiens) (UniProt Q9Y243); assay: Inhibition of human AKT3 at 1 uM using RBER-GSK3 as substrate in presence of 33P-ATP by ProQinase assay
[14] = target: Serine/threonine-protein kinase Nek6 (Homo sapiens) (UniProt Q9HC98); assay: Inhibition of recombinant human His6-tagged NEK6 (8 to 313 residues) expressed in baculovirus infected Sf21 cells assessed as remaining activity at 1 uM using FLAKSFGSPNRAYKK as substrate incubated for 30 mins in presence of [gamma-33P]ATP by filter binding method relative to control
[15] = target: Inhibitor of nuclear factor kappa-B kinase subunit beta (Homo sapiens) (UniProt O14920); assay: Inhibition of recombinant human N-terminal His6-tagged IKKbeta (1 to 736 residues) expressed in baculovirus infected Sf21 cells assessed as remaining activity at 1 uM using LDDRHDSGLDSMKDEEY as substrate incubated for 30 mins in presence of [gamma-33P]ATP by filter binding method relative to control
[16] = target: Vascular endothelial growth factor receptor 1 (Homo sapiens) (UniProt P17948); assay: Inhibition of recombinant human N-terminal GST-tagged VEGFR1 (784 to 1338 residues) expressed in baculovirus infected Sf21 cells assessed as remaining activity at 1 uM using KKKSPGEYVNIEFG as substrate incubated for 30 mins in presence of [gamma-33P]ATP by filter binding method relative to control
[17] = target: Diacylglycerol kinase zeta (Homo sapiens) (UniProt Q13574); assay: Inhibition of recombinant human N-terminal His6-tagged DGKzeta (1 to 929 residues) expressed in baculovirus expression system at 1 uM using diacyl-glycerol as substrate incubated for 40 mins by ADP-Glo assay
[18] = species on record: Homo sapiens; assay: Inhibition of DGK (unknown origin) at 1 uM
[19] = target: Serine/threonine-protein kinase tousled-like 1 (Homo sapiens) (UniProt Q9UKI8); assay: Inhibition of recombinant human N-terminal GST-tagged TLK1 (1 to 766 residues) expressed in Escherichia coli assessed as remaining activity at 1 uM using MBP as substrate incubated for 30 mins in presence of [gamma-33P]ATP by filter binding method relative to control
[20] = target: Mitogen-activated protein kinase 7 (Homo sapiens) (UniProt Q13164); assay: Inhibition of recombinant human N-terminal His6-tagged ERK5 (1 to 816 residues) expressed in baculovirus infected Sf21 cells assessed as remaining activity at 1 uM using MBP as substrate incubated for 30 mins in presence of [gamma-33P]ATP by filter binding method relative to control
Chain of Mitogen-activated protein kinase 7 (Homo sapiens) (Q13164 2-816 limits assumed): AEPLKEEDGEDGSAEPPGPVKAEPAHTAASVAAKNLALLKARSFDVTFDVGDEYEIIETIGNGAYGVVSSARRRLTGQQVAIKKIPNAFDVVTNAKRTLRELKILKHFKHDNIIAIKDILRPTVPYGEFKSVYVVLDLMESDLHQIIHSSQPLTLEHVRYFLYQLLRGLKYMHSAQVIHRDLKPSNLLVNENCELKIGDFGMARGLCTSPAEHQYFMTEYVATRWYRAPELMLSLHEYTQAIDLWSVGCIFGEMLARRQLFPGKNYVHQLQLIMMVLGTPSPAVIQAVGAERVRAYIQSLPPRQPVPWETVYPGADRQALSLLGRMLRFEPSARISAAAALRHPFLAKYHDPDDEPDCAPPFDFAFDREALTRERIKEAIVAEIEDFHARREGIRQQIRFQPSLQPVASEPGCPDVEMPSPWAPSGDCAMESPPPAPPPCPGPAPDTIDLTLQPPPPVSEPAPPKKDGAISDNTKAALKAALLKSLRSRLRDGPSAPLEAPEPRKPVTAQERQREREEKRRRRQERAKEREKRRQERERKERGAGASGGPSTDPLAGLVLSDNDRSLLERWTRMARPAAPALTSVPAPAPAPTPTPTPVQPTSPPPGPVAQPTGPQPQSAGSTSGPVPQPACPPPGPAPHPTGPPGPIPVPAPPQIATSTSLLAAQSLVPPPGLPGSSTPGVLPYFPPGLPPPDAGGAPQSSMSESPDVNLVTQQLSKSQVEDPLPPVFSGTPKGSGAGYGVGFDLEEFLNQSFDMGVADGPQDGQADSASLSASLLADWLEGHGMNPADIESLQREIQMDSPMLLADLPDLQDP

[21] = target: Serine/threonine-protein kinase PAK 6 (Homo sapiens) (UniProt Q9NQU5); assay: Inhibition of human PAK6 at 1 uM using bio-4xCHKT as substrate in presence of 33P-ATP by ProQinase assay
[22] = target: Macrophage colony-stimulating factor 1 receptor (Homo sapiens) (UniProt P07333); assay: Inhibition of human CSF1R at 1 uM using polyEY as substrate in presence of 33P-ATP by ProQinase assay
[23] = target: Ephrin type-B receptor 2 (Homo sapiens) (UniProt P29323); assay: Inhibition of human EPHB2 at 1 uM using poly(Ala,Glu,Lys,Tyr) as substrate in presence of 33P-ATP by ProQinase assay
[24] = target: Serine/threonine-protein kinase PINK1, mitochondrial (Homo sapiens) (UniProt Q9BXM7); assay: Inhibition of recombinant human N-terminal MBP-tagged PINK1 (1 to 570 residues) expressed in Escherichia coli assessed as remaining activity at 1 uM using KKSRGDYMTMQIG as substrate incubated for 30 mins in presence of [gamma-33P]ATP by filter binding method relative to control
[25] = target: Ephrin type-A receptor 5 (Homo sapiens) (UniProt P54756); assay: Inhibition of human EPHA5 at 1 uM using polyEY as substrate in presence of 33P-ATP by ProQinase assay
Chain of Ephrin type-A receptor 5 (Homo sapiens) (P54756 whole entry): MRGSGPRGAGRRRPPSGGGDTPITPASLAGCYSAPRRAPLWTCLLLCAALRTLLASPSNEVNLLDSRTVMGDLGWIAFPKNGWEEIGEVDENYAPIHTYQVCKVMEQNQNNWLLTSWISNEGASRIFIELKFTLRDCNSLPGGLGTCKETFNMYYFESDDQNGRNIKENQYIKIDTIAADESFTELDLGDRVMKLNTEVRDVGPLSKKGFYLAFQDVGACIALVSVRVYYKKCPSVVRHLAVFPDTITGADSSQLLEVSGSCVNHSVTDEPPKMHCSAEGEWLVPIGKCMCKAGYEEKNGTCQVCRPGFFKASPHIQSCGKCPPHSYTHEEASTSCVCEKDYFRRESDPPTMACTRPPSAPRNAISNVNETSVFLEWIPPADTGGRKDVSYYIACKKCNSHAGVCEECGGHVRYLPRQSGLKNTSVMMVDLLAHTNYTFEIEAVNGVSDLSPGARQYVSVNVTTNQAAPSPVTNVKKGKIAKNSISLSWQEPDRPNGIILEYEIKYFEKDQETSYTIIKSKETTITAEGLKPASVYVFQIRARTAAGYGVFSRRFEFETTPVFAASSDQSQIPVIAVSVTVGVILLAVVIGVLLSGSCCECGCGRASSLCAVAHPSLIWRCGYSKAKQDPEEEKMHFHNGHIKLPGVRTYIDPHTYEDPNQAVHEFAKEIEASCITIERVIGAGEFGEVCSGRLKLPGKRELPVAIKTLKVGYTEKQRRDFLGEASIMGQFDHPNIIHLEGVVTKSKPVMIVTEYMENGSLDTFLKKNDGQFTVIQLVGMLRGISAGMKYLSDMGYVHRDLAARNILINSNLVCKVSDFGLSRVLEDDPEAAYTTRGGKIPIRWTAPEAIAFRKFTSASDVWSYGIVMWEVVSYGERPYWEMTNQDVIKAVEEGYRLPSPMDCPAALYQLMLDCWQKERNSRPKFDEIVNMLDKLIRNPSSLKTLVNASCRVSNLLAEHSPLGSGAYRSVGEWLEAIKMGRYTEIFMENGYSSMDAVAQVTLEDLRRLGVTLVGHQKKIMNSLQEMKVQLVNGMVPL

## CC(C)(O)CNc1ncc(-c2ccnc(Nc3ccnc(Cl)c3)n2)c(CC2CC2)n1
[1]
  Activity: 117%
[2]
  Activity: 105%
[3]
  Activity: 93%
[4]
  inhibition: inactive
[5]
  inhibition: inactive
[6]
  inhibition: inactive
[7]
  Activity: 106%
[8]
  inhibition: inactive
[9]
  inhibition: inactive
[10]
  inhibition: inactive
[11]
  inhibition: inactive
[12]
  inhibition: inactive
[13]
  inhibition: inactive
[14]
  Activity: 98%
[15]
  Activity: 106%
[16]
  Activity: 113%
[17]
  inhibition: inactive
[18]
  inhibition: inactive
[19]
  Activity: 100%
[20]
  Activity: 104%
[21]
  inhibition: inactive
[22]
  inhibition: inactive
[23]
  inhibition: inactive
[24]
  Activity: 109%
[25]
  inhibition: inactive
